The first test has as its system alkaline phosphatase activity in T47D cells. The experiment in a line: Effects of progestins and antiprogestins on alkaline phosphatase activity in T47D cells (antagonist mode). The format is cell-based. As to conditions: Homo sapiens, % inhibition at 30 nM, in the presence of 1 nM progesterone, read-out: T47D Alkaline Phosphatase Activity IC50 (nM) or % inhibition. As for the experimental part:
(1) Effects of Progestins and Antiprogestins on Alkaline Phosphatase Activity in T47D Cells
PURPOSE: To identify progestins or antiprogestins by determining a compound's effect on alkaline phosphatase activity in T47D cells.
Culture Medium: • DMEM:F12 (1:1) (GIBCO, BRL) supplemented with 5% (v/v) charcoal stripped fetal bovine serum (not heat-inactivated), 100 U/mL penicillin, 100 μg/mL streptomycin, and 2 mM the GlutaMax™ reagent (GIBCO, BRL).
Alkaline Phosphatase Assay Buffer: • I. 0.1M Tris-HCl, pH 9.8, containing 0.2% the Triton® X-100 reagent • II. 0.1M Tris-HCl, pH 9.8, containing 4 mM p-nitrophenyl phosphate (Sigma). B. Cell Culture and Treatment:
Frozen T47D cells were thawed in a 37° C. water bath and diluted to 280,000 cells/mL in culture medium. To each well in a 96-well plate (Falcon, Becton Dickinson Labware), 180 μL of diluted cell suspension was added.
Twenty μL of reference or test compounds diluted in the culture medium was then added to each well. When testing for progestin antagonist activity, reference antiprogestins or test compounds were added in the presence of 1 nM progesterone. The cells were incubated at 37° C. in a 5% CO2/humidified atmosphere for 24 h.
NOTE: For high throughput screening, one concentration of each compound was tested at 0.3 μg/mL. Based on an average molecular weight of 300 g/mol for the compounds in the library, the concentration was approximately 1 μM. Subsequently, active compounds were tested in dose response assays to determine EC50 and IC50. C. Alkaline Phosphatase Enzyme Assay:
At the end of treatment, the medium was removed from the plate. Fifty μL of assay buffer I was added to each well. The plates were shaken in a titer plate shaker for 15 min. Then 150 μL of assay buffer II was added to each well. Optical density measurements were taken at 5 min intervals for 30 min at a test wavelength of 405 nm.
For reference and test compounds, a dose response curve was generated for dose (X-axis) vs. the rate of enzyme reaction (slope) (Y-axis). Square root-transformed data was used for analysis of variance and nonlinear dose response curve fitting for both agonist and antagonist modes. Huber weighting was used to down-weight the effects of outliers. EC50 or IC50 values were calculated from the retransformed values. JMP software (SAS Institute, Inc.) was used for both one-way analysis of variance and non-linear dose response analysis in both single dose and dose response studies.
Progesterone and trimegestone were reference progestins and RU486 was the reference antiprogestin. All reference compounds were run in full dose response curves and the EC50 and IC50 values were calculated.
As a reminder, the inhibition is the share of the control response that was lost under treatment. With `CC1(C)COC(=O)N1c1nc(-c2ccc(Cl)cc2Cl)cs1` [Example 118, 3-[4-(2,4-Dichlorophenyl)-1,3-thiazol-2-yl]-4,4-dimethyl-1,3-oxazolidin-2-one], the inhibition at 0.03 µM was 60%.

Still in this test, the particulars now being: Homo sapiens, % inhibition at 3000 nM, in the presence of 1 nM progesterone, read-out: T47D Alkaline Phosphatase Activity IC50 (nM) or % inhibition.
As to `CCS(=O)(=O)c1cccc(-c2csc(N3C(=O)OCC3(C)C)n2)c1` [Example 102, 3-{4-[3-(Ethylsulfonyl)phenyl]-1,3-thiazol-2-yl}-4,4-dimethyl-1,3-oxazolidin-2-one], the inhibition at 3 µM was 27%. Take `O=C1OC[C@H](COCc2ccccc2)N1c1nc(-c2ccc(Br)cc2)cs1` [Example 91, (4S)-4-[(benzyloxy)methyl]-3-[4-(4-bromophenyl)-1,3-thiazol-2-yl]-1,3-oxazolidin-2-one]: the inhibition at 3 µM worked out at 63%. For `CC1(C)COC(=O)N1c1nc(-c2ccc(OCc3ccccc3)cc2)cs1` [Example 125, 3-{4-[4-(Benzyloxy)phenyl]-1,3-thiazol-2-yl}-4,4-dimethyl-1,3-oxazolidin-2-one], the inhibition at 3 µM came out at 80%. Take `CC1(C)COC(=O)N1c1nc(-c2ccoc2)cs1` [Example 104, 3-[4-(3-Furyl)-1,3-thiazol-2-yl]-4,4-dimethyl-1,3-oxazolidin-2-one]: the inhibition at 3 µM was determined as 94%.

Turning to `CC1(C)COC(=O)N1c1nc(-c2ccc(-c3ccccc3)cc2)cs1` [Example 128, 3-(4-Biphenyl-4-yl-1,3-thiazol-2-yl)-4,4-dimethyl-1,3-oxazolidin-2-one], the inhibition at 3 µM came out at 47%. Take `CC1(C)CO/C(=N\S(C)(=O)=O)N1c1nc(-c2ccc(C#N)cc2)cs1` [Example 136, N-{(2Z)-3-[4-(4-Cyanophenyl)-1,3-thiazol-2-yl]-4,4-dimethyl-1,3-oxazolidin-2-ylidene}methanesulfonamide]: the inhibition at 3 µM was 100%.

The same test, now with this note: Homo sapiens, in the presence of 1 nM progesterone, 24 h, read-out: T47D Alkaline Phosphatase Activity IC50 (nM) or % inhibition.
One may read the IC50 as the concentration that inhibits the measured activity by half. `CC1(C)CN(Cc2ccccc2)C(=O)N1c1nc(-c2ccc(C#N)cc2)cs1` [Example 84, 4-[2-(3-Benzyl-5,5-dimethyl-2-oxoimidazolidin-1-yl)-1,3-thiazol-4-yl]benzonitrile]: the IC50 worked out at 77.9 nM.

`CC1(C)COC(=O)N1c1nc(-c2ccc(F)cc2)cs1` [Example 115, 3-[4-(4-Fluorophenyl)-1,3-thiazol-2-yl]-4,4-dimethyl-1,3-oxazolidin-2-one]: the half-maximal inhibitory concentration (IC50) turned out to be 72.2 nM. Take `CC1(C)COC(=O)N1c1nc(-c2ccccc2)cs1` [Example 120, 4,4-Dimethyl-3-(4-phenyl-1,3-thiazol-2-yl)-1,3-oxazolidin-2-one]: the IC50 is 247 nM.

`CC1(C)COC(=O)N1c1nc(-c2ccc(OC(F)(F)F)cc2)cs1` [Example 97, 4,4-Dimethyl-3-{4-[4-(trifluoromethoxy)phenyl]-1,3-thiazol-2-yl}-1,3-oxazolidin-2-one]: the IC50 worked out at 285 nM. Regarding `CC1(C)COC(=O)N1c1nc(-c2cccc(C(F)(F)F)c2)cs1` [Example 96, 4,4-Dimethyl-3-{4-[3-(trifluoromethyl)phenyl]-1,3-thiazol-2-yl}-1,3-oxazolidin-2-one], the IC50 worked out at 328 nM. As for `COc1cccc(-c2csc(N3C(=O)OCC3(C)C)n2)c1` [Example 99, 3-[4-(3-Methoxyphenyl)-1,3-thiazol-2-yl]-4,4-dimethyl-1,3-oxazolidin-2-one], the 50% inhibitory concentration (IC50) stood at 64.6 nM. Take `N#Cc1ccc(-c2csc(N3CCOC3=O)n2)cc1` [Example 132, 4-[2-(2-Oxo-1,3-oxazolidin-3-yl)-1,3-thiazol-4-yl]benzonitrile]: the IC50 was 37.6 nM. `COC(=O)c1ccc(-c2nc(N3C(=O)OCC3(C)C)sc2Cl)cc1` [Example 130, Methyl 4-[5-chloro-2-(4,4-dimethyl-2-oxo-1,3-oxazolidin-3-yl)-1,3-thiazol-4-yl]benzoate]: the IC50 amounted to 181 nM. As to `CN1CCN(c2nc(-c3ccc(Br)cc3)cs2)C1=O` [Example 76, 1-[4-(4-Bromophenyl)-1,3-thiazol-2-yl]-3-methylimidazolidin-2-one], the concentration for half-maximal inhibition (IC50) turned out to be 733 nM.

For `O=C1OCCN1c1nc(-c2ccc(Cl)cc2)cs1` [Example 131, 3-[4-(4-Chlorophenyl)-1,3-thiazol-2-yl]-1,3-oxazolidin-2-one], the IC50 came to 41.1 nM. `CN1CC(C)(C)N(c2nc(-c3ccc(C#N)cc3)cs2)C1=O` [Example 83, 4-[2-(3,5,5-Trimethyl-2-oxoimidazolidin-1-yl)-1,3-thiazol-4-yl]benzonitrile]: the half-maximal inhibitory concentration (IC50) worked out at 35.4 nM.

On to `CC1(C)COC(=O)N1c1nc(-c2c(F)cc(F)cc2F)cs1` [Example 101, 4,4-Dimethyl-3-[4-(2,4,6-trifluorophenyl)-1,3-thiazol-2-yl]-1,3-oxazolidin-2-one], for which the half-inhibitory concentration (IC50) stood at 536 nM.

Regarding `N#Cc1ccc(-c2csc(N3CCOC3=O)c2)cc1` [Example 112, 4-[5-(2-Oxo-1,3-oxazolidin-3-yl)-3-thienyl]benzonitrile], the 50% inhibitory concentration (IC50) amounted to 480 nM. Turning to `CC1(C)COC(=O)N1c1nc(-c2ccc(F)c(Cl)c2)cs1` [Example 117, 3-[4-(3-Chloro-4-fluorophenyl)-1,3-thiazol-2-yl]-4,4-dimethyl-1,3-oxazolidin-2-one], the IC50 is 50.4 nM. Take `Cc1cc(-c2csc(N3C(=O)OCC3(C)C)n2)ccc1F` [Example 126, 3-[4-(4-Fluoro-3-methylphenyl)-1,3-thiazol-2-yl]-4,4-dimethyl-1,3-oxazolidin-2-one]: the IC50 was 33.4 nM. The same measure, in the same setting: the figure for `CC1(C)COC(=O)N1c1nc(-c2ccc3[nH]ccc3c2)cs1` [Example 105, 3-[4-(1H-Indol-5-yl)-1,3-thiazol-2-yl]-4,4-dimethyl-1,3-oxazolidin-2-one] is 110 nM; for `COC(=O)c1ccc(-c2csc(N3C(=O)OCC3(C)C)n2)cc1` [Example 129, Methyl 4-[2-(4,4-dimethyl-2-oxo-1,3-oxazolidin-3-yl)-1,3-thiazol-4-yl]benzoate] it is 20.3 nM. Regarding `CC1(C)COC(=O)N1c1nc(-c2ccc(C#N)cc2)ns1` [Example 94, 4-[5-(4,4-dimethyl-2-oxo-1,3-oxazolidin-3-yl)-1,2,4-thiadiazol-3-yl]benzonitrile], the IC50 turned out to be 146 nM.

Turning to `CC(=O)c1cccc(-c2csc(N3C(=O)OCC3(C)C)n2)c1` [Example 107, 3-[4-(3-Acetylphenyl)-1,3-thiazol-2-yl]-4,4-dimethyl-1,3-oxazolidin-2-one], the IC50 stood at 83.7 nM. As for `Cn1cc(-c2csc(N3C(=O)OCC3(C)C)n2)cc1C#N` [Example 133, 4-[2-(4,4-Dimethyl-2-oxo-1,3-oxazolidin-3-yl)-1,3-thiazol-4-yl]-1-methyl-1H-pyrrole-2-carbonitrile], the IC50 was 69.6 nM. Take `N#Cc1ccc(-c2csc(N3C(=O)OCC34CCC4)n2)cc1` [Example 27, 4-[2-(6-Oxo-7-oxa-5-azaspiro[3.4]oct-5-yl)-1,3-thiazol-4-yl]benzonitrile]: the 50% inhibitory concentration (IC50) came to 17.1 nM. As to `COc1ccc(-c2csc(N3C(=O)OCC3(C)C)n2)cc1` [Example 98, 3-[4-(4-Methoxyphenyl)-1,3-thiazol-2-yl]-4,4-dimethyl-1,3-oxazolidin-2-one], the IC50 is 191 nM.

Regarding `CC1(C)COC(=O)N1c1nc(-c2ccc(CC#N)cc2)cs1` [Example 103, {4-[2-(4,4-Dimethyl-2-oxo-1,3-oxazolidin-3-yl)-1,3-thiazol-4-yl]phenyl}acetonitrile], the IC50 turned out to be 262 nM. For the compound `CC(=O)c1ccc(-c2csc(N3C(=O)OCC3(C)C)n2)cc1` [Example 106, 3-[4-(4-Acetylphenyl)-1,3-thiazol-2-yl]-4,4-dimethyl-1,3-oxazolidin-2-one], the IC50 was 498 nM. The same measure, in the same setting: under `CC1(C)OCCN1c1nc(-c2ccc(C#N)cc2)cs1` [Example 110, 4-[2-(2,2-Dimethyl-1,3-oxazolidin-3-yl)-1,3-thiazol-4-yl]benzonitrile] stands 269 nM; under `CC1(C)COC(=O)N1c1nc(-c2ccc(Br)cc2)ns1` [Example 93, 3-[3-(4-Bromophenyl)-1,2,4-thiadiazol-5-yl]-4,4-dimethyl-1,3-oxazolidin-2-one], 135 nM. The same measure, in the same setting: the figure for `CC1(C)COC(=O)N1c1nc(-c2ccc(C#N)cc2)c(Cl)s1` [Example 90, 4-[5-Chloro-2-(4,4-dimethyl-2-oxo-1,3-oxazolidin-3-yl)-1,3-thiazol-4-yl]benzonitrile] is 43.5 nM.

Source of the values: US7618990B2, “Oxazolidone derivatives as PR modulators” (Wyeth, priority 2006, dated 2009).
